{"source": "patent US6613718B2", "about": "“Aryl ether derivatives and processes for their preparation and herbicidal and desiccant compositions containing them” (Ishihara Sangyo Kaisha, Ltd., priority 2001, dated 2003)", "assay_type_in_all_cases": "in vivo", "conditions_in_all_cases": "14 days after application", "key": {"[1]": {"tested_on": "field corn (Zea mays L., var. Dekalb 535, CORN)", "assay": "Post-emerge greenhouse screening, crop safety / corn selectivity (phytotoxicity rating)", "how_it_was_run": "(§1)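 Track-sprayer application, nozzle 40-45 cm above soil or canopy; compound in acetone at 15 to 1000 g ai/ha. Visual 0–100 rating at 14 days after treatment.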"}, "[2]": {"tested_on": "redroot pigweed (Amaranthus retroflexus, AMARE)", "assay": "Pre-emerge greenhouse herbicide activity screening, phytotoxicity rating", "how_it_was_run": "as §1"}, "[3]": {"tested_on": "large crabgrass (Digitaria sanguinalis, DIGSA)", "assay": "Pre-emerge greenhouse herbicide activity screening, phytotoxicity rating", "how_it_was_run": "as §1"}, "[4]": {"tested_on": "ivyleaf morningglory (Ipomoea hederacea, IPOHE)", "assay": "Pre-emerge greenhouse herbicide activity screening, phytotoxicity rating", "how_it_was_run": "as §1"}, "[5]": {"tested_on": "lambsquarters (Chenopodium album, CHEAL)", "assay": "Pre-emerge greenhouse herbicide activity screening, phytotoxicity rating", "how_it_was_run": "as §1"}, "[6]": {"tested_on": "barnyardgrass (Echinochloa crus-galli, ECHCG)", "assay": "Pre-emerge greenhouse herbicide activity screening, phytotoxicity rating", "how_it_was_run": "as §1"}, "[7]": {"tested_on": "green foxtail (Setaria viridis, SETVI)", "assay": "Pre-emerge greenhouse herbicide activity screening, phytotoxicity rating", "how_it_was_run": "as §1"}, "[8]": {"tested_on": "velvetleaf (Abutilon theophrasti, ABUTH)", "assay": "Pre-emerge greenhouse herbicide activity screening, phytotoxicity rating", "how_it_was_run": "as §1"}, "[9]": {"tested_on": "johnsongrass (Sorghum halepense, SORHA)", "assay": "Pre-emerge greenhouse herbicide activity screening, phytotoxicity rating", "how_it_was_run": "as §1"}, "[10]": {"tested_on": "common ragweed (Ambrosia artemisiifolia L., AMBEL)", "assay": "Pre-emerge greenhouse herbicide activity screening, phytotoxicity rating", "how_it_was_run": "as §1"}, "[11]": {"tested_on": "sicklepod (Cassia obtusifolia, CASOB)", "assay": "Pre-emerge greenhouse herbicide activity screening, phytotoxicity rating", "how_it_was_run": "as §1"}, "[12]": {"tested_on": "soybean (Glycine max L., var. Pella 86, SOY)", "assay": "Post-emerge greenhouse screening, crop safety (phytotoxicity rating)", "how_it_was_run": "as §1"}, "[13]": {"tested_on": "upland rice (Oryza sp., var.Tebonnet, RICE)", "assay": "Post-emerge greenhouse screening, crop safety (phytotoxicity rating)", "how_it_was_run": "as §1"}, "[14]": {"tested_on": "redroot pigweed (Amaranthus retroflexus, AMARE)", "assay": "Post-emerge greenhouse herbicide activity screening, phytotoxicity rating", "how_it_was_run": "as §1"}, "[15]": {"tested_on": "large crabgrass (Digitaria sanguinalis, DIGSA)", "assay": "Post-emerge greenhouse herbicide activity screening, phytotoxicity rating", "how_it_was_run": "as §1"}, "[16]": {"tested_on": "ivyleaf morningglory (Ipomoea hederacea, IPOHE)", "assay": "Post-emerge greenhouse herbicide activity screening, phytotoxicity rating", "how_it_was_run": "as §1"}, "[17]": {"tested_on": "lambsquarters (Chenopodium album, CHEAL)", "assay": "Post-emerge greenhouse herbicide activity screening, phytotoxicity rating", "how_it_was_run": "as §1"}, "[18]": {"tested_on": "barnyardgrass (Echinochloa crus-galli, ECHCG)", "assay": "Post-emerge greenhouse herbicide activity screening, phytotoxicity rating", "how_it_was_run": "as §1"}, "[19]": {"tested_on": "green foxtail (Setaria viridis, SETVI)", "assay": "Post-emerge greenhouse herbicide activity screening, phytotoxicity rating", "how_it_was_run": "as §1"}, "[20]": {"tested_on": "velvetleaf (Abutilon theophrasti, ABUTH)", "assay": "Post-emerge greenhouse herbicide activity screening, phytotoxicity rating", "how_it_was_run": "as §1"}, "[21]": {"tested_on": "johnsongrass (Sorghum halepense, SORHA)", "assay": "Post-emerge greenhouse herbicide activity screening, phytotoxicity rating", "how_it_was_run": "as §1"}, "[22]": {"tested_on": "common ragweed (Ambrosia artemisiifolia L., AMBEL)", "assay": "Post-emerge greenhouse herbicide activity screening, phytotoxicity rating", "how_it_was_run": "as §1"}, "[23]": {"tested_on": "sicklepod (Cassia obtusifolia, CASOB)", "assay": "Post-emerge greenhouse herbicide activity screening, phytotoxicity rating", "how_it_was_run": "as §1"}, "[24]": {"tested_on": "field corn (Zea mays L., var. Dekalb 535, CORN)", "assay": "Pre-emerge greenhouse screening, crop safety (phytotoxicity rating)", "how_it_was_run": "as §1"}, "[25]": {"tested_on": "soybean (Glycine max L., var. Pella 86, SOY)", "assay": "Pre-emerge greenhouse screening, crop safety (phytotoxicity rating)", "how_it_was_run": "as §1"}, "[26]": {"tested_on": "upland rice (Oryza sp., var.Tebonnet, RICE)", "assay": "Pre-emerge greenhouse screening, crop safety (phytotoxicity rating)", "how_it_was_run": "as §1"}}}
{"smiles": "Fc1cc(Cl)c(Oc2ncccn2)cc1-c1nn2c(c1Cl)CCCC2", "note": "[Compound 6-1, 3-Chloro-2-[4-chloro-2-fluoro-5-(2-pyrimidinyloxy)phenyl]-4,5,6,7-tetrahydro-pyrazolo[1,5-a]pyridine]", "values": [{"measurement": "CORN crop damage, phytotoxicity rating (0-100 scale)", "setting": "[1]; 125 g ai/ha", "value": 10}, {"measurement": "CORN crop damage, phytotoxicity rating (0-100 scale)", "setting": "[1]; 250 g ai/ha", "value": 20}, {"measurement": "AMARE phytotoxicity rating (0-100 scale)", "setting": "[2]; 125 g ai/ha", "value": 100}, {"measurement": "AMARE phytotoxicity rating (0-100 scale)", "setting": "[2]; 250 g ai/ha", "value": 100}, {"measurement": "DIGSA phytotoxicity rating (0-100 scale)", "setting": "[3]; 125 g ai/ha", "value": 100}, {"measurement": "DIGSA phytotoxicity rating (0-100 scale)", "setting": "[3]; 250 g ai/ha", "value": 100}, {"measurement": "IPOHE phytotoxicity rating (0-100 scale)", "setting": "[4]; 125 g ai/ha", "value": 99}, {"measurement": "IPOHE phytotoxicity rating (0-100 scale)", "setting": "[4]; 250 g ai/ha", "value": 100}, {"measurement": "CHEAL phytotoxicity rating (0-100 scale)", "setting": "[5]; 125 g ai/ha", "value": 100}, {"measurement": "CHEAL phytotoxicity rating (0-100 scale)", "setting": "[5]; 250 g ai/ha", "value": 100}, {"measurement": "ECHCG phytotoxicity rating (0-100 scale)", "setting": "[6]; 125 g ai/ha", "value": 99}, {"measurement": "ECHCG phytotoxicity rating (0-100 scale)", "setting": "[6]; 250 g ai/ha", "value": 100}, {"measurement": "SETVI phytotoxicity rating (0-100 scale)", "setting": "[7]; 125 g ai/ha", "value": 100}, {"measurement": "SETVI phytotoxicity rating (0-100 scale)", "setting": "[7]; 250 g ai/ha", "value": 100}, {"measurement": "ABUTH phytotoxicity rating (0-100 scale)", "setting": "[8]; 125 g ai/ha", "value": 100}, {"measurement": "ABUTH phytotoxicity rating (0-100 scale)", "setting": "[8]; 250 g ai/ha", "value": 100}, {"measurement": "SORHA phytotoxicity rating (0-100 scale)", "setting": "[9]; 125 g ai/ha", "value": 100}, {"measurement": "SORHA phytotoxicity rating (0-100 scale)", "setting": "[9]; 250 g ai/ha", "value": 100}, {"measurement": "AMBEL phytotoxicity rating (0-100 scale)", "setting": "[10]; 125 g ai/ha", "value": 100}, {"measurement": "AMBEL phytotoxicity rating (0-100 scale)", "setting": "[10]; 250 g ai/ha", "value": 100}, {"measurement": "CASOB phytotoxicity rating (0-100 scale)", "setting": "[11]; 125 g ai/ha", "value": 100}, {"measurement": "CASOB phytotoxicity rating (0-100 scale)", "setting": "[11]; 250 g ai/ha", "value": 100}, {"measurement": "SOY crop damage, phytotoxicity rating (0-100 scale)", "setting": "[12]; 125 g ai/ha", "value": 95}, {"measurement": "SOY crop damage, phytotoxicity rating (0-100 scale)", "setting": "[12]; 250 g ai/ha", "value": 100}, {"measurement": "RICE crop damage, phytotoxicity rating (0-100 scale)", "setting": "[13]; 125 g ai/ha", "value": 90}, {"measurement": "RICE crop damage, phytotoxicity rating (0-100 scale)", "setting": "[13]; 250 g ai/ha", "value": 95}, {"measurement": "AMARE phytotoxicity rating (0-100 scale)", "setting": "[14]; 125 g ai/ha", "value": 100}, {"measurement": "AMARE phytotoxicity rating (0-100 scale)", "setting": "[14]; 250 g ai/ha", "value": 100}, {"measurement": "DIGSA phytotoxicity rating (0-100 scale)", "setting": "[15]; 125 g ai/ha", "value": 90}, {"measurement": "DIGSA phytotoxicity rating (0-100 scale)", "setting": "[15]; 250 g ai/ha", "value": 98}, {"measurement": "IPOHE phytotoxicity rating (0-100 scale)", "setting": "[16]; 125 g ai/ha", "value": 100}, {"measurement": "IPOHE phytotoxicity rating (0-100 scale)", "setting": "[16]; 250 g ai/ha", "value": 100}, {"measurement": "CHEAL phytotoxicity rating (0-100 scale)", "setting": "[17]; 125 g ai/ha", "value": 100}, {"measurement": "CHEAL phytotoxicity rating (0-100 scale)", "setting": "[17]; 250 g ai/ha", "value": 100}, {"measurement": "ECHCG phytotoxicity rating (0-100 scale)", "setting": "[18]; 125 g ai/ha", "value": 90}, {"measurement": "ECHCG phytotoxicity rating (0-100 scale)", "setting": "[18]; 250 g ai/ha", "value": 100}, {"measurement": "SETVI phytotoxicity rating (0-100 scale)", "setting": "[19]; 125 g ai/ha", "value": 100}, {"measurement": "SETVI phytotoxicity rating (0-100 scale)", "setting": "[19]; 250 g ai/ha", "value": 100}, {"measurement": "ABUTH phytotoxicity rating (0-100 scale)", "setting": "[20]; 125 g ai/ha", "value": 100}, {"measurement": "ABUTH phytotoxicity rating (0-100 scale)", "setting": "[20]; 250 g ai/ha", "value": 100}, {"measurement": "SORHA phytotoxicity rating (0-100 scale)", "setting": "[21]; 125 g ai/ha", "value": 75}, {"measurement": "SORHA phytotoxicity rating (0-100 scale)", "setting": "[21]; 250 g ai/ha", "value": 95}, {"measurement": "AMBEL phytotoxicity rating (0-100 scale)", "setting": "[22]; 125 g ai/ha", "value": 85}, {"measurement": "AMBEL phytotoxicity rating (0-100 scale)", "setting": "[22]; 250 g ai/ha", "value": 90}, {"measurement": "CASOB phytotoxicity rating (0-100 scale)", "setting": "[23]; 125 g ai/ha", "value": 100}, {"measurement": "CASOB phytotoxicity rating (0-100 scale)", "setting": "[23]; 250 g ai/ha", "value": 100}, {"measurement": "CORN crop damage, phytotoxicity rating (0-100 scale)", "setting": "[24]; 125 g ai/ha", "value": 40}, {"measurement": "CORN crop damage, phytotoxicity rating (0-100 scale)", "setting": "[24]; 250 g ai/ha", "value": 50}, {"measurement": "SOY crop damage, phytotoxicity rating (0-100 scale)", "setting": "[25]; 125 g ai/ha", "value": 25}, {"measurement": "SOY crop damage, phytotoxicity rating (0-100 scale)", "setting": "[25]; 250 g ai/ha", "value": 60}, {"measurement": "RICE crop damage, phytotoxicity rating (0-100 scale)", "setting": "[26]; 125 g ai/ha", "value": 85}, {"measurement": "RICE crop damage, phytotoxicity rating (0-100 scale)", "setting": "[26]; 250 g ai/ha", "value": 95}]}
